Measured values taken from article PMC4993765, “Shikonin Inhibits Intestinal Calcium-Activated Chloride Channels and Prevents Rotaviral Diarrhea” (Frontiers in Pharmacology, 2016).

Target: T1, TMEM16A (Homo sapiens, UniProt Q5XXA6)
T1 construct: gene ANO1
T1 sequence (Q5XXA6 1-986): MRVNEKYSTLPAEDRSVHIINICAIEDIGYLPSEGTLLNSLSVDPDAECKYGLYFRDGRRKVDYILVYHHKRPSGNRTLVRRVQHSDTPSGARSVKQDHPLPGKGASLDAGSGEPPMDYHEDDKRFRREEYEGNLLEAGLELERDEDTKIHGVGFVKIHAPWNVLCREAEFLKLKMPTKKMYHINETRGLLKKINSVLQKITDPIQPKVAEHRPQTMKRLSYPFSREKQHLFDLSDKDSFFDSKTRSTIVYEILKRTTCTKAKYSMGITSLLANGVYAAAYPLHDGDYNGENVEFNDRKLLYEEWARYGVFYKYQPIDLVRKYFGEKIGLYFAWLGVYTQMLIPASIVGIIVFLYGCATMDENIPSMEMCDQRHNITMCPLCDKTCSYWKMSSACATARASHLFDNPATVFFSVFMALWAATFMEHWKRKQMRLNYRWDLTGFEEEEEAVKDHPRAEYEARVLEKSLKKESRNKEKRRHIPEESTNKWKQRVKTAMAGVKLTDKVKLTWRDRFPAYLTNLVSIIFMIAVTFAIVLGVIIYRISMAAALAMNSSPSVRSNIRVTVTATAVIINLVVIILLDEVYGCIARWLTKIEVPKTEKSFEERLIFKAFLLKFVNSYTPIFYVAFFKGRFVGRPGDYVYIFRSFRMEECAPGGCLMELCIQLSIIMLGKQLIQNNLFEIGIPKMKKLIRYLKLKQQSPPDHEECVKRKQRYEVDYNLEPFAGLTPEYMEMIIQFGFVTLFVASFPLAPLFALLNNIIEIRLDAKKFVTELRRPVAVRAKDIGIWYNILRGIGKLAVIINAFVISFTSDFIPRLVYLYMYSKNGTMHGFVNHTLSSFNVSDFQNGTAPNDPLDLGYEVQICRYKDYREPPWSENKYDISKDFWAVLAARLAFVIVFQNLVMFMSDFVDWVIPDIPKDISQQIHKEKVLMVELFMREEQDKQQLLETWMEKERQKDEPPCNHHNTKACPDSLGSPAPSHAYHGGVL
Assay: short-circuit current (Eact-induced Cl- current) in basolaterally permeabilized FRT cells expressing TMEM16A; also YFP fluorescence quenching
Type: cell-based

Compound: CC(C)=CC[C@@H](O)C1=CC(=O)c2c(O)ccc(O)c2C1=O [shikonin]
- IC50: 1.5 µM
